Reference: patent US20060014717A1, “Therapeutic compositions for use in prophylaxis or treatment of diarrheas” (priority 2002, published 2006)

How the values were obtained:
[1] = system: enteropathogenic wild type E. coli strain 37; assay: Inhibition with soluble oligosaccharides in the chromatogram binding assay; set-up: species or system Escherichia coli
Method: FIG. 5. […] Radiolabeled wild type E. coli strain 37 was incubated with a mixture of globotriaose (1.5 mM), neolactotetraose (1.5 mM) and 6′sialyllactose (1.5 mM) in PBS for 1 h at room temperature. Thereafter the suspensions were utilized in the chromatogram binding assay. (A) Binding of radiolabeled E. coli strain 37. (B) Binding of E. coli strain 37 incubated with a mixture of globotriaose, neolactotetraose and 6′sialyllactose. Lanes 1-4 were serial dilutions of globotriaosylceramide (Galα4Galβ4Glc β1Cer) and NeuGc-neolactohexaosylceramide (NeuGcα3Galβ4GlcNAcβ3Gaβ4GlcNacβ3Galβ4Glcβ1Cer). Lane 1, 2 μg of each compound, lane 2, 1 μg of each compound, lane 3, 0.5 μg of each compound, lane 4, 0.2 μg of each compound. Lanes 5-8 were serial dilutions of NeuGc-neolactotetraosylceramide (NeuGcα3Galβ4GlcNAcβ3Galβ4Glcβ1Cer). Lane 5, 2 μg of each compound, lane 6, 1 μg of each compound, lane 7, 0.5 μg of each compound, lane 8, 0.2 μg of each compound. The glycosphingolipids were separated on aluminium-packed silica gel plates, using chloroform/methanol/water (60:35:8, by volume) as solvent system, and the binding assay was performed as described under “Experimental procedures”. Autoradiography was for 12 h.
(C) Binding curves obtained after quantification of binding by densitometry. The autoradiograms in (A) and (B) were analyzed using the NIH Image program. […]

EPEC = conditions: 100 mM; cited from earlier work
[2] = system: shiga toxina and shigalike toxin; conditions: cited from earlier work
diarrheagenic E. coli = assay: Inhibition with soluble oligosaccharides in the chromatogram binding assay; set-up: species or system Escherichia coli
Method: (§1) Glycosphingolipid Binding Assays—Binding of ^35S-labeled bacteria to glycosphingolipids on thin-layer chromatograms was done as reported (7). Dried chromatograms were dipped for 1 min in diethylether/n-hexane (1:5, by volume) containing 0.5% (w/v) polyisobutylmethacrylate (Aldrich Chem. Comp. Inc., Milwaukee, Wis.). After drying, the chromatograms were soaked in PBS containing 2% bovine serum albumin (w/v), 0.1% NaN3 (w/v) and 0.1% Tween 20 (by volume) for 2 h at room temperature. The chromatograms were subsequentely covered with radiolabeled bacteria diluted in PBS (2-5×10^6 cpm/ml). Incubation was done for 2 h at room temperature, followed by repeated washings with PBS. The chromatograms were thereafter autoradiographed using XAR-5 X-ray films (Eastman Kodak, Rochester, N.Y.) for 12 h. Autoradiograms were replicated using a CCD camera (Dage-MTI, Inc., Michigan City, Ind.), and analysis of the images was performed using the public domain NIH Image program (developed at the U.S. National Institutes of Health, and available at http://rsb.info.nih.eov/nih-imaee/).
The final concentrations of the inhibiting oligosaccharides on the TLC-plate were 0.3 mM. […] Thereafter the chromatogram binding assay was performed as described above.

Helicobacter pylori [3] = conditions: in vivo; cited from earlier work
Helicobacter pylori [4] = conditions: cited from earlier work
H. mustelae 25715 = assay: Binding of 35S-labeled Helicobacter species to glycosphingolipids on thin-layer chromatograms; set-up: species or system Helicobacter mustelae; key: An significant darkening on the autoradiogram when 2 μg of the glycosphingolipid was applied on the thin-layer plate is denoted by +; − denotes no binding; conditions: 2 μg (40 μg for the glycosphingolipid fraction) on TLC plates
Excerpt: (§2) Gastric species examined in the present study included, Helicobacter mustelae ferret isolates from the National Collection of Type Cultures (NCTC) and the Culture Collection of the University of Gothenberg (CCUG), NCTC 12198/CCUG 25175 (equivalent strains from different sources tested), CCUG 23950 and CCUG 23951, Helicobacterfelis CCUG 28539 from a cat, in addition, H. pylori strains CCUG 17874, CCUG 17875 and a clinical isolate 119/95 were used. Enterohepatic helicobacters of animal origin were purchased from the CCUG including, Helicobacter canes CCUG 33835, Helicobacter bilis CCUG 38995, Helicobacter hepaticus CCUG 33637, and Helicobacterfennelliae (CCUG 18820).
(§3) Binding of Helicobacter spp. to glycosphingolipids, both acid and non-acidfractions. Glycosphingolipids were isolated by standard procedures (Karlsson, 1987). The identity of the purified glycosphingolipids was confirmed by mass spectrometry (Samuelsson et al., 1990), proton NMR spectroscopy (Koerner et al., 1983) and degradation studies (Stellner et al., 1973; Yang and Hakomori, 1971).
(§4) Mixtures of glycosphingolipids (40 μg/lane) or pure compounds (2 μg/lane) were subsequently separated using thin-layer chromatography (TLC) on glass- or aluminum-backed silica gel 60 HPTLC plates (Merck, Darmstadt, Germany), with chloroform/methanot/water (60:35:8, by volume) as solvent system. Chemical detection was accomplished by anisaldehyde (Waldi, 1962). Helicobacter spp. were subjected to ^35S-labeling (Angstrom et al., 1998) and suspended in PBS (10^8 CFU/ml) with a specific activity of approximately 1 cpm per 100 organisms. Binding of the labeled-bacteria to glycosphingolipids separated by TLC was achieved using a bacterial-overlay technique coupled with autoradiography detection using XAR-5 X-ray films (Eastman Kodak, Rochester, N.Y.) as previously described (Hansson et al., 1985).

[5] = system: H. mustelae CCUG 23950 & 23951; assay: as above; set-up: species or system Helicobacter mustelae; key: An significant darkening on the autoradiogram when 2 μg of the glycosphingolipid was applied on the thin-layer plate is denoted by +; − denotes no binding; conditions: 2 μg (40 μg for the glycosphingolipid fraction) on TLC plates
Excerpt: as §2, §3, §4

H. pylori CCUG 17874 = assay: as above; set-up: species or system Helicobacter pylori; key: An significant darkening on the autoradiogram when 2 μg of the glycosphingolipid was applied on the thin-layer plate is denoted by +; − denotes no binding; conditions: 2 μg (40 μg for the glycosphingolipid fraction) on TLC plates
Excerpt: as §2, §3, §4

H. bilis CCUG 38995 = assay: as above; set-up: species or system Helicobacter bilis; key: An significant darkening on the autoradiogram when 2 μg of the glycosphingolipid was applied on the thin-layer plate is denoted by +; − denotes no binding; conditions: 2 μg (40 μg for the glycosphingolipid fraction) on TLC plates
Excerpt: as §2, §3, §4

H. pylori CCUG 17875 [6] = assay: as above; set-up: species or system Helicobacter pylori
Excerpt: as §2, §3
Mixtures of glycosphingolipids (40 μg/lane) or pure compounds (2 μg/lane) were subsequently separated using thin-layer chromatography (TLC) on glass- or aluminum-backed silica gel 60 HPTLC plates (Merck, Darmstadt, Germany), with chloroform/methanot/water (60:35:8, by volume) as solvent system. […]

H. canis CCUG 33835 = assay: as above; set-up: species or system Helicobacter canis; key: An significant darkening on the autoradiogram when 2 μg of the glycosphingolipid was applied on the thin-layer plate is denoted by +; − denotes no binding; conditions: 2 μg (40 μg for the glycosphingolipid fraction) on TLC plates
Excerpt: as §2, §3, §4

H. hepaticus CCUG 33637 = assay: as above; set-up: species or system Helicobacter hepaticus; key: An significant darkening on the autoradiogram when 2 μg of the glycosphingolipid was applied on the thin-layer plate is denoted by +; − denotes no binding; conditions: 2 μg (40 μg for the glycosphingolipid fraction) on TLC plates
Excerpt: as §2, §3, §4

H. pylori CCUG 17875 [7] = assay: as above; set-up: species or system Helicobacter pylori; key: + denotes a significant darkening on the autoradiogram when 2 μg (or 40 μg in the case of the last sample) was applied to TLC plates; − denotes no binding; conditions: 2 μg (40 μg for the glycosphingolipid fraction) on TLC plates
Excerpt: as §2, §3, §4

H. felis CCUG 28539 = assay: as above; set-up: species or system Helicobacter felis; key: An significant darkening on the autoradiogram when 2 μg of the glycosphingolipid was applied on the thin-layer plate is denoted by +; − denotes no binding; conditions: 2 μg (40 μg for the glycosphingolipid fraction) on TLC plates
Excerpt: as §2, §3, §4

H. pylori CCUG 17875 [8] = assay: as above; set-up: species or system Helicobacter pylori; key: An significant darkening on the autoradiogram when 2 μg of the glycosphingolipid was applied on the thin-layer plate is denoted by +; − denotes no binding; conditions: 2 μg (40 μg for the glycosphingolipid fraction) on TLC plates
Excerpt: as §2, §3, §4

EPEC strain = conditions: listed in decreasing order of activity; cited from earlier work
E. coli EIEC CCUG 38092 = assay: Chromatogram binding assay, binding specificities of type strains; set-up: species or system Escherichia coli; conditions: prolonged sub-culture, 4 μg per lane
Method: Culture Conditions and Labeling—The E. coli strains were cultured on Luria-agar with the addition of 10 μl ^35S-methionine (400 tici; Amersham Pharmacia Biotech, U.K.) at 37° C. for 12 h. The bacteria were harvested by scraping, washed three times with phosphate-buffered saline (PBS), pH 7.3, and thereafter resuspended in PBS (with or without 1% mannose (w/v)) to 1×10^8 CFU/ml. The specific activities of the suspensions were approximately 1 cpm per 100 bacteria.
Thin-Layer Chromatography—Thin-layer chromatography of glycosphingolipids was performed on glass- or aluminum-backed silica gel 60 HPTLC plates (Merck, Darmstadt, Germany), using chloroform/methanol/water 60:35:8 (by volume) as solvent system. Chemical detection was done with anisaldehyde (6).
as §1
However, several wild type diarrheagenic E. coli strains bind to sialic acid (see e.g. FIG. 6 and FIG. 3). […]

Row | Compound | Binding of glycosphingolipids to H.mustelae 25715 (H. mustelae 25715) | Binding of glycosphingolipids to H.mustelae 23950 & 23951 [5] | Binding of glycosphingolipids to H.pylori 17874 (H. pylori CCUG 17874) | Binding of glycosphingolipids to H.bilis 38995 (H. bilis CCUG 38995) | Binding of glycosphingolipids to H.canis 33835 (H. canis CCUG 33835) | Binding of glycosphingolipids to H.hepaticus 33637 (H. hepaticus CCUG 33637) | Binding of glycosphingolipids to H.felis 28539 (H. felis CCUG 28539) | further results
1 | CC(=O)NC1C(O)CC(OCC2OC(OC3C(CO)OC(O)C(O)C3O)C(O)C(O)C2O)(C(=O)O)OC1C(O)C(O)CO (stereo not shown) [6′sialyllactose, NeuNAcα6Galβ4Glc] |  |  |  |  |  |  |  | Inhibition of binding to NeuGcα3-neolactotetraosylceramide [1]: inhibited
2 | CC(=O)N[C@H]1C(O)O[C@H](CO)[C@H](O)[C@@H]1O (stereo partly shown) [N-acetylgalactosamine] |  |  |  |  |  |  |  | Inhibition of EPEC binding to HeLa cells (EPEC): inhibited
3 | OC[C@H]1O[C@H](O[C@@H]2[C@H](O)[C@@H](O)[C@H](O[C@H]3[C@H](O)[C@@H](O)C(O)O[C@@H]3CO)O[C@@H]2CO)[C@H](O)[C@@H](O)[C@H]1O (stereo partly shown) [globotriaose, Galα4Galβ4Glc] |  |  |  |  |  |  |  | Inhibition of toxin with monovalent inhibitor [2]: Minor effects; Inhibition of non-toxigenic diarrhea causing E. coli by monovalent oligosaccharide (diarrheagenic E. coli; concentration of 0.3 mM): effect is seen; Inhibition of binding to globotriaosylceramide (diarrheagenic E. coli; preincubation 1.5 mM, final concentration 0.3 mM): Inhibition of binding
4 | CC(=O)N[C@H]1[C@H]([C@H](O)[C@H](O)CO)O[C@@](O[C@H]2[C@@H](O)[C@@H](CO)O[C@@H](O[C@H]3[C@H](O)[C@@H](O)C(O)O[C@@H]3CO)[C@@H]2O)(C(=O)O)C[C@@H]1O (stereo partly shown) [sialyl-lactose] |  |  |  |  |  |  |  | Efficacy in a rhesus monkey animal model of the infection (Helicobacter pylori [3]): effective; Inhibition of Helicobacter pylori binding to human gastrointestinal cell lines (Helicobacter pylori [4]): inhibits
5 | Fucα2Galβ3(Fucα4)GlcNAcβ3Galβ4Glcβ1Cer [No. 25] | − | − | − | − | − | − | − | Binding of H. pylori CCUG 17875 to glycosphingolipid, in words (H. pylori CCUG 17875 [6]): only observed for H. pylori CCUG 17875; Binding of glycosphingolipids to H.pylori 17875 (H. pylori CCUG 17875 [7]): +
6 | GalNAcβ3Galα4Galβ4Glcβ1Cer [No. 12] | − | − | − | − | − | − | − | Binding of glycosphingolipids to H.pylori 17875 (H. pylori CCUG 17875 [8]): −; Binding of an EPEC strain to commercial glycolipids (EPEC strain): observed to bind; Binding of E. coli CCUG 38092 to pure glycosphingolipids after sub-culture (E. coli EIEC CCUG 38092): remain
7 | Galβ3(Fucα4)GlcNAcβ3Galβ4Glcβ1Cer [No. 24] | − | − | − | − | − | − | − | Binding of glycosphingolipids to H.pylori 17875 (H. pylori CCUG 17875 [8]): −
